# Measured values as given in ChEMBL document CHEMBL1201861, “Genomics of Drug Sensitity in Cancer screening data, Wellcome Trust Sanger Institute”.
# pIC50: −log10 of the molar value.
# Columns and labels:
# COLO-792 = test: cells; format: functional, cell-based; conditions: Homo sapiens
# Description: SANGER: Inhibition of human COLO-792 cell growth in a cell viability assay.
# COR-L105 = test: cells; format: functional, cell-based; conditions: Homo sapiens
# Description: SANGER: Inhibition of human COR-L105 cell growth in a cell viability assay.
# Calu-3 = test: cells; format: functional, cell-based; conditions: Homo sapiens;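 further: growth inhibition of human Calu-3 cells, determined with a cell viability assay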
# Description: SANGER: Inhibition of human Calu-3 cell growth in a cell viability assay.
# D-542MG = test: cells; format: functional, cell-based; conditions: Homo sapiens
# Description: SANGER: Inhibition of human D-542MG cell growth in a cell viability assay.
# EB2 = test: cells; format: functional, cell-based; conditions: Homo sapiens;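 further: growth inhibition of EB2 cells, read out with a cell viability assay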
# Description: SANGER: Inhibition of human EB2 cell growth in a cell viability assay.
# ESS-1 = test: cells; format: functional, cell-based; conditions: Homo sapiens;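 further: growth inhibition of human ESS-1 cells, read out by a cell viability assay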
# Description: SANGER: Inhibition of human ESS-1 cell growth in a cell viability assay.
# GMS-10 = test: cells; format: functional, cell-based; conditions: Homo sapiens;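 further: growth inhibition of GMS-10 cells, read out as cell viability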
# Description: SANGER: Inhibition of human GMS-10 cell growth in a cell viability assay.
# HCC1599 = test: cells; format: functional, cell-based; conditions: Homo sapiens;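 further: growth inhibition of HCC1599 cells, read out in a cell viability assay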
# Description: SANGER: Inhibition of human HCC1599 cell growth in a cell viability assay.
# HCC1937 = test: cells; format: functional, cell-based; conditions: Homo sapiens;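 further: growth inhibition measured with a cell viability read-out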
# Description: SANGER: Inhibition of human HCC1937 cell growth in a cell viability assay.
# HN = test: cells; format: functional, cell-based; conditions: Homo sapiens
# Description: SANGER: Inhibition of human HN cell growth in a cell viability assay.
# HO-1-N-1 = test: cells; format: functional, cell-based; conditions: Homo sapiens;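 further: growth inhibition of human HO-1-N-1 cells, read out with a cell viability assay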
# Description: SANGER: Inhibition of human HO-1-N-1 cell growth in a cell viability assay.
# HOS = test: cells; format: functional, cell-based; conditions: Homo sapiens;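 further: growth inhibition of human HOS cells, read out with a cell viability assay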
# Description: SANGER: Inhibition of human HOS cell growth in a cell viability assay.
# HT-1376 = test: cells; format: functional, cell-based; conditions: Homo sapiens
# Description: SANGER: Inhibition of human HT-1376 cell growth in a cell viability assay.
# HTC-C3 = test: cells; format: functional, cell-based; conditions: Homo sapiens;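 further: inhibition of cell growth, read out with a cell viability assay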
# Description: SANGER: Inhibition of human HTC-C3 cell growth in a cell viability assay.
# KYSE-150 cell line = test: cells; format: functional, cell-based; conditions: Homo sapiens;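 further: growth inhibition of human KYSE-150 cells, read out with a cell viability assay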
# Description: SANGER: Inhibition of human KYSE-150 cell growth in a cell viability assay.
# LK-2 = test: cells; format: functional, cell-based; conditions: Homo sapiens;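 further: growth inhibition of LK-2 cells, read out with a viability assay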
# Description: SANGER: Inhibition of human LK-2 cell growth in a cell viability assay.
# LP-1 = test: cells; format: functional, cell-based; conditions: Homo sapiens;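 further: growth inhibition of human LP-1 cells, with the read-out taken from a cell viability assay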
# Description: SANGER: Inhibition of human LP-1 cell growth in a cell viability assay.
# MDA-MB-231 = test: cells; format: functional, cell-based; conditions: Homo sapiens
# Description: SANGER: Inhibition of human MDA-MB-231 cell growth in a cell viability assay.
# MDA-MB-415 = test: cells; format: functional, cell-based; conditions: Homo sapiens
# MFE-280 = test: cells; format: functional, cell-based; conditions: Homo sapiens;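 further: growth inhibition of MFE-280 cells, determined with a cell viability readout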
# Description: SANGER: Inhibition of human MFE-280 cell growth in a cell viability assay.
# MONO-MAC-6 = test: cells; format: functional, cell-based; conditions: Homo sapiens;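 further: cell viability assay measuring growth inhibition of human MONO-MAC-6 cells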
# Description: SANGER: Inhibition of human MONO-MAC-6 cell growth in a cell viability assay.
# MRK-nu-1 = test: cells; format: functional, cell-based; conditions: Homo sapiens;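 further: cell viability assay measuring growth suppression of human MRK-nu-1 cells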
# Description: SANGER: Inhibition of human MRK-nu-1 cell growth in a cell viability assay.
# NB12 = test: cells; format: functional, cell-based; conditions: Homo sapiens;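 further: growth inhibition of human NB12 cells, read out by a cell viability assay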
# Description: SANGER: Inhibition of human NB12 cell growth in a cell viability assay.
# NCI-H1694 = test: cells; format: functional, cell-based; conditions: Homo sapiens;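 further: cell viability assay measuring inhibition of growth in human NCI-H1694 cells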
# Description: SANGER: Inhibition of human NCI-H1694 cell growth in a cell viability assay.
# NCI-H1963 = test: cells; format: functional, cell-based; conditions: Homo sapiens;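 further: cell growth inhibition of the human line, determined with a cell viability assay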
# Description: SANGER: Inhibition of human NCI-H1963 cell growth in a cell viability assay.
# NCI-H2030 = test: cells; format: functional, cell-based; conditions: Homo sapiens;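 further: growth inhibition of human NCI-H2030 cells, read out by a cell viability assay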
# Description: SANGER: Inhibition of human NCI-H2030 cell growth in a cell viability assay.
# NCI-H2170 = test: cells; format: functional, cell-based; conditions: Homo sapiens;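 further: cell viability assay measuring growth inhibition of human NCI-H2170 cancer cells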
# Description: SANGER: Inhibition of human NCI-H2170 cell growth in a cell viability assay.
# NCI-H2228 = test: cells; format: functional, cell-based; conditions: Homo sapiens;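 further: growth inhibition of human NCI-H2228 cells, read out by a cell viability assay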
# Description: SANGER: Inhibition of human NCI-H2228 cell growth in a cell viability assay.
# NCI-H345 = test: cells; format: functional, cell-based; conditions: Homo sapiens;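 further: growth inhibition of NCI-H345 cells measured with a cell viability assay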
# Description: SANGER: Inhibition of human NCI-H345 cell growth in a cell viability assay.
# NCI-H522 = test: cells; format: functional, cell-based; conditions: Homo sapiens;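 further: cell viability assay measuring growth inhibition of human NCI-H522 cells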
# Description: SANGER: Inhibition of human NCI-H522 cell growth in a cell viability assay.
# NCI-H596 = test: cells; format: functional, cell-based; conditions: Homo sapiens;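 further: growth inhibition of NCI-H596 cells, read out with a cell viability assay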
# Description: SANGER: Inhibition of human NCI-H596 cell growth in a cell viability assay.
# NCI-H889 = test: cells; format: functional, cell-based; conditions: Homo sapiens;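 further: cell growth inhibition of the cell line, read out with a viability assay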
# Description: SANGER: Inhibition of human NCI-H889 cell growth in a cell viability assay.
# NY = test: cells; format: functional, cell-based; conditions: Homo sapiens
# Description: SANGER: Inhibition of human NY cell growth in a cell viability assay.
# OVCAR-5 = test: cells; format: functional, cell-based; conditions: Homo sapiens;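 further: growth inhibition of human OVCAR-5 cells, read out with a cell viability assay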
# Description: SANGER: Inhibition of human OVCAR-5 cell growth in a cell viability assay.
# P31-FUJ = test: cells; format: functional, cell-based; conditions: Homo sapiens;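 further: growth inhibition of P31-FUJ cells, read out with a viability assay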
# Description: SANGER: Inhibition of human P31-FUJ cell growth in a cell viability assay.
# PF-382 = test: cells; format: functional, cell-based; conditions: Homo sapiens
# Description: SANGER: Inhibition of human PF-382 cell growth in a cell viability assay.
# RD = test: cells; format: functional, cell-based; conditions: Homo sapiens
# Description: SANGER: Inhibition of human RD cell growth in a cell viability assay.
# RERF-LC-MS = test: cells; format: functional, cell-based; conditions: Homo sapiens;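 further: growth inhibition of human RERF-LC-MS cells, read out by a cell viability assay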
# Description: SANGER: Inhibition of human RERF-LC-MS cell growth in a cell viability assay.
# RPMI-2650 = test: cells; format: functional, cell-based; conditions: Homo sapiens
# Description: SANGER: Inhibition of human RPMI-2650 cell growth in a cell viability assay.
# SK-HEP1 = test: cells; format: functional, cell-based, SK-HEP-1; conditions: Homo sapiens;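 further: cell viability readout used to quantify reduction in proliferation of human SK-HEP-1 cells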
# Description: SANGER: Inhibition of human SK-HEP-1 cell growth in a cell viability assay.
# SK-MEL-30 = test: cells; format: functional, cell-based; conditions: Homo sapiens;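 further: growth inhibition of SK-MEL-30 cells, determined with a cell viability assay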
# Description: SANGER: Inhibition of human SK-MEL-30 cell growth in a cell viability assay.
# SK-OV-3 = test: cells; format: functional, cell-based; conditions: Homo sapiens;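 further: growth inhibition of SK-OV-3 human cells, read out with a cell viability assay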
# Description: SANGER: Inhibition of human SK-OV-3 cell growth in a cell viability assay.
# SNU-449 = test: cells; format: functional, cell-based; conditions: Homo sapiens
# Description: SANGER: Inhibition of human SNU-449 cell growth in a cell viability assay.
# SW1990 = test: cells; format: functional, cell-based; conditions: Homo sapiens
# Description: SANGER: Inhibition of human SW1990 cell growth in a cell viability assay.
# SW626 = test: cells; format: functional, cell-based; conditions: Homo sapiens;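 further: growth inhibition of SW626 cells, measured with a cell viability assay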
# Description: SANGER: Inhibition of human SW626 cell growth in a cell viability assay.
# SW756 = test: cells; format: functional, cell-based; conditions: Homo sapiens;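 further: growth inhibition of human SW756 cells, read out with a cell viability assay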
# Description: SANGER: Inhibition of human SW756 cell growth in a cell viability assay.
# SiHa = test: cells; format: functional, cell-based; conditions: Homo sapiens;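 further: Viability-based readout of growth inhibition in SiHa cells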
# Description: SANGER: Inhibition of human SiHa cell growth in a cell viability assay.
# TALL-1 = test: cells; format: functional, cell-based; conditions: Homo sapiens;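 further: growth inhibition of cultured human TALL-1 cells, read out by a cell viability assay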
# Description: SANGER: Inhibition of human TALL-1 cell growth in a cell viability assay.
# 23132-87 = test: cells; format: functional, cell-based; conditions: Homo sapiens
# Description: SANGER: Inhibition of human 23132-87 cell growth in a cell viability assay.
# 647-V = test: cells; format: functional, cell-based; conditions: Homo sapiens;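 further: growth inhibition of 647-V cells, read out with a cell viability assay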
# Description: SANGER: Inhibition of human 647-V cell growth in a cell viability assay.
# 769-P = test: cells; format: functional, cell-based; conditions: Homo sapiens
# Description: SANGER: Inhibition of human 769-P cell growth in a cell viability assay.
# 786-0 = test: cells; format: functional, cell-based; conditions: Homo sapiens
# Description: SANGER: Inhibition of human 786-0 cell growth in a cell viability assay.
# 8505C = test: cells; format: functional, cell-based; conditions: Homo sapiens
# Description: SANGER: Inhibition of human 8505C cell growth in a cell viability assay.
# A 172 = test: cells; format: functional, cell-based; conditions: Homo sapiens;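 further: growth inhibition of A172 cells, measured with a cell viability readout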
# Description: SANGER: Inhibition of human A172 cell growth in a cell viability assay.
# A-375 = test: cells; format: functional, cell-based; conditions: Homo sapiens;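 further: growth inhibition of A375 cells, read out with a cell viability assay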
# Description: SANGER: Inhibition of human A375 cell growth in a cell viability assay.
# BFTC-905 = test: cells; format: functional, cell-based; conditions: Homo sapiens
# Description: SANGER: Inhibition of human BFTC-905 cell growth in a cell viability assay.
# BHY = test: cells; format: functional, cell-based; conditions: Homo sapiens;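 further: cell growth inhibition read out by a viability assay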
# Description: SANGER: Inhibition of human BHY cell growth in a cell viability assay.
# BL-41 = test: cells; format: functional, cell-based; conditions: Homo sapiens;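 further: growth inhibition of human BL-41 cells, read out with a cell viability assay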
# Description: SANGER: Inhibition of human BL-41 cell growth in a cell viability assay.
# BL-70 = test: SANGER: Inhibition of human BL-70 cell growth in a cell viability assay.; format: functional, cell-based
# CAL-12T = test: cells; format: functional, cell-based, Homo sapiens; conditions: Homo sapiens, CAL-12T;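 further: growth inhibition of human CAL-12T cells, read out with a cell viability assay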
# Description: SANGER: Inhibition of human CAL-12T cell growth in a cell viability assay.
# CAL-27 = test: cells; format: functional, cell-based; conditions: Homo sapiens;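 further: Viability-based readout, IC50 reflecting inhibition of CAL-27 cell growth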
# Description: SANGER: Inhibition of human CAL-27 cell growth in a cell viability assay.
# CAL-54 = test: cells; format: functional, cell-based; conditions: Homo sapiens;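 further: growth inhibition of CAL-54 cells, read out by a viability measurement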
# Description: SANGER: Inhibition of human CAL-54 cell growth in a cell viability assay.
# UO-31 = test: cells; format: functional, cell-based; conditions: Homo sapiens
# Description: SANGER: Inhibition of human U031 cell growth in a cell viability assay.
# VMRC-RCZ = test: cells; format: functional, cell-based; conditions: Homo sapiens
# Description: SANGER: Inhibition of human VMRC-RCZ cell growth in a cell viability assay.
# YT = test: cells; format: functional, cell-based; conditions: Homo sapiens
# Description: SANGER: Inhibition of human YT cell growth in a cell viability assay.
smiles,measurement,setting,value
CCNC(=O)c1noc(-c2cc(C(C)C)c(O)cc2O)c1-c1ccc(CN2CCOCC2)cc1 [LUMINESPIB],pIC50,COLO-792,7.05
same,pIC50,COR-L105,7.72
same,pIC50,Calu-3,7.42
same,pIC50,D-542MG,6.85
same,pIC50,EB2,7.14
same,pIC50,ESS-1,7.10
same,pIC50,GMS-10,6.87
same,pIC50,HCC1599,7.02
same,pIC50,HCC1937,7.35
same,pIC50,HN,7.59
same,pIC50,HO-1-N-1,7.59
same,pIC50,HOS,8.86
same,pIC50,HT-1376,7.01
same,pIC50,HTC-C3,7.58
same,pIC50,KYSE-150 cell line,7.44
same,pIC50,LK-2,6.99
same,pIC50,LP-1,< 6.59
same,pIC50,MDA-MB-231,7.04
same,pIC50,MDA-MB-415,6.70
same,pIC50,MFE-280,< 6.59
same,pIC50,MONO-MAC-6,7.41
same,pIC50,MRK-nu-1,7.64
same,pIC50,NB12,7.02
same,pIC50,NCI-H1694,< 6.59
same,pIC50,NCI-H1963,7.29
same,pIC50,NCI-H2030,7.77
same,pIC50,NCI-H2170,6.79
same,pIC50,NCI-H2228,7.97
same,pIC50,NCI-H345,< 6.59
same,pIC50,NCI-H522,7.71
same,pIC50,NCI-H596,6.76
same,pIC50,NCI-H889,< 6.59
same,pIC50,NY,7.76
same,pIC50,OVCAR-5,7.74
same,pIC50,P31-FUJ,< 6.59
same,pIC50,PF-382,7.32
same,pIC50,RD,7.58
same,pIC50,RERF-LC-MS,6.87
same,pIC50,RPMI-2650,7.84
same,pIC50,SK-HEP1,8.47
same,pIC50,SK-MEL-30,7.36
same,pIC50,SK-OV-3,8.20
same,pIC50,SNU-449,7.69
same,pIC50,SW1990,7.56
same,pIC50,SW626,7.67
same,pIC50,SW756,7.38
same,pIC50,SiHa,< 6.59
same,pIC50,TALL-1,< 6.59
same,pIC50,23132-87,6.98
same,pIC50,647-V,6.83
same,pIC50,769-P,7.97
same,pIC50,786-0,8.18
same,pIC50,8505C,8.09
same,pIC50,A 172,7.40
same,pIC50,A-375,7.66
same,pIC50,BFTC-905,8.03
same,pIC50,BHY,7.72
same,pIC50,BL-41,7.25
same,pIC50,BL-70,7.47
same,pIC50,CAL-12T,8.04
same,pIC50,CAL-27,7.09
same,pIC50,CAL-54,< 6.59
same,pIC50,UO-31,7.32
same,pIC50,VMRC-RCZ,7.78
same,pIC50,YT,7.93
CC(O)(CS(=O)(=O)c1ccc(F)cc1)C(=O)Nc1ccc(C#N)c(C(F)(F)F)c1 (stereo not given) [BICALUTAMIDE],pIC50,COLO-792,< 5.99
same,pIC50,COR-L105,< 5.99
same,pIC50,Calu-3,< 5.99
same,pIC50,D-542MG,< 5.99
same,pIC50,EB2,< 5.99
same,pIC50,ESS-1,< 5.99
same,pIC50,GMS-10,< 5.99
same,pIC50,HCC1599,< 5.99
same,pIC50,HCC1937,< 5.99
same,pIC50,HN,< 5.99
same,pIC50,HO-1-N-1,< 5.99
same,pIC50,HOS,< 5.99
same,pIC50,HT-1376,< 5.99
same,pIC50,HTC-C3,< 5.99
same,pIC50,KYSE-150 cell line,< 5.99
same,pIC50,LK-2,< 5.99
same,pIC50,LP-1,< 5.99
same,pIC50,MDA-MB-231,< 5.99
same,pIC50,MDA-MB-415,< 5.99
same,pIC50,MFE-280,< 5.99
same,pIC50,MONO-MAC-6,< 5.99
same,pIC50,MRK-nu-1,< 5.99
same,pIC50,NB12,< 5.99
same,pIC50,NCI-H1694,< 5.99
same,pIC50,NCI-H1963,< 5.99
same,pIC50,NCI-H2030,< 5.99
same,pIC50,NCI-H2170,< 5.99
same,pIC50,NCI-H2228,< 5.99
same,pIC50,NCI-H345,< 5.99
same,pIC50,NCI-H522,< 5.99
same,pIC50,NCI-H596,< 5.99
same,pIC50,NCI-H889,< 5.99
same,pIC50,NY,< 5.99
same,pIC50,OVCAR-5,< 5.99
same,pIC50,P31-FUJ,< 5.99
same,pIC50,PF-382,< 5.99
same,pIC50,RD,< 5.99
same,pIC50,RERF-LC-MS,< 5.99
same,pIC50,RPMI-2650,< 5.99
same,pIC50,SK-HEP1,< 5.99
same,pIC50,SK-MEL-30,< 5.99
same,pIC50,SK-OV-3,< 5.99
same,pIC50,SNU-449,< 5.99
same,pIC50,SW1990,< 5.99
same,pIC50,SW626,< 5.99
same,pIC50,SW756,< 5.99
same,pIC50,SiHa,< 5.99
same,pIC50,TALL-1,< 5.99
same,pIC50,23132-87,< 5.99
same,pIC50,647-V,< 5.99
same,pIC50,769-P,< 5.99
same,pIC50,786-0,< 5.99
same,pIC50,8505C,< 5.99
same,pIC50,A 172,< 5.99
same,pIC50,A-375,< 5.99
same,pIC50,BFTC-905,< 5.99
same,pIC50,BHY,< 5.99
same,pIC50,BL-41,< 5.99
same,pIC50,BL-70,< 5.99
same,pIC50,CAL-12T,< 5.99
same,pIC50,CAL-27,< 5.99
same,pIC50,CAL-54,< 5.99
same,pIC50,UO-31,< 5.99
same,pIC50,VMRC-RCZ,< 5.99
same,pIC50,YT,< 5.99
